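96-well plates; 48 h exposure; 5 concentrations. Endpoints by linear interpolation between flanking doses. Not reached: highest tested concentration assigned. GI50 is the concentration that inhibits growth by half.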 Activity calls are given as the source filed them. Rule as the data show it: active = GI50 up to about 1.1 µM and inactive = higher.
Columns and labels:
Assay in all cases: growth of human tumour cells (NCI), 48 h
EKVX = test system: EKVX
CAKI-1 = test system: CAKI-1
Malme-3M = test system: Malme-3M
UACC-62 = test system: UACC-62
SK-MEL-2 = test system: SK-MEL-2
ACHN = test system: ACHN
HT-29 = test system: HT-29
CCRF-CEM = test system: CCRF-CEM
RXF 393 = test system: RXF 393
M14 = test system: M14
SK-OV-3 = test system: SK-OV-3
NCI-H522 = test system: NCI-H522
COLO 205 = test system: COLO 205
OVCAR-8 = test system: OVCAR-8
NCI-H226 = test system: NCI-H226
OVCAR-3 = test system: OVCAR-3
MCF7 = test system: MCF7
MDA-N = test system: MDA-N
NCI/ADR-RES = test system: NCI/ADR-RES
PC-3 = test system: PC-3

Measured: GI50

C/C(CC(=O)Nc1ccc(NC(=O)C/C(C)=N\NC(N)=O)cc1)=N/NC(N)=O
inactive: EKVX > 74.3 µM | CAKI-1 > 100 µM | Malme-3M > 100 µM | UACC-62 > 84.9 µM | SK-MEL-2 > 95.3 µM | ACHN 99.8 µM | HT-29 96.8 µM | CCRF-CEM > 62.8 µM | RXF 393 > 91.4 µM | M14 65.3 µM | SK-OV-3 > 100 µM | NCI-H522 > 51.5 µM | COLO 205 > 50.9 µM | OVCAR-8 > 100 µM | NCI-H226 > 100 µM | OVCAR-3 49.5 µM

O=c1cc(-c2ccncc2)[nH]c2cc3c(cc12)OCO3
inactive: EKVX > 100 µM | MCF7 > 100 µM | UACC-62 > 100 µM | MDA-N > 100 µM | SK-MEL-2 > 100 µM | ACHN > 100 µM | HT-29 > 100 µM | RXF 393 > 100 µM | M14 > 100 µM | SK-OV-3 > 100 µM | NCI/ADR-RES > 100 µM | COLO 205 > 100 µM | OVCAR-8 > 100 µM | NCI-H226 > 100 µM | OVCAR-3 > 100 µM

Cc1ccc(C(=O)O)c(/C=C2\Cc3cc(C)cc(C)c3C2=O)c1
inactive: EKVX 66.7 µM | CAKI-1 > 100 µM | MCF7 69.3 µM | Malme-3M 96.4 µM | UACC-62 76 µM | MDA-N 56.5 µM | SK-MEL-2 > 100 µM | ACHN 74 µM | HT-29 > 100 µM | CCRF-CEM 35.7 µM | RXF 393 67.3 µM | NCI-H522 > 100 µM | PC-3 48.6 µM | OVCAR-8 82.2 µM | NCI-H226 40.5 µM | OVCAR-3 36 µM

Nc1ccc2ncc(Nc3ccc(Cl)c(Cl)c3)nc2c1
inactive: EKVX 27.2 µM | CAKI-1 23.4 µM | Malme-3M 23.1 µM | UACC-62 20.2 µM | SK-MEL-2 26.4 µM | ACHN 16.9 µM | HT-29 14.8 µM | CCRF-CEM 19.7 µM | RXF 393 24.7 µM | M14 19.4 µM | SK-OV-3 38.9 µM | NCI-H522 17.9 µM | COLO 205 16.7 µM | OVCAR-8 25.5 µM | NCI-H226 20.8 µM | OVCAR-3 19.4 µM

Fc1ccccc1C1CC(C(c2ccccc2)c2ccccc2)=Nc2ccccc2S1 (stereo not drawn)
inactive: EKVX 10.3 µM | CAKI-1 6.25 µM | Malme-3M 16 µM | UACC-62 3.27 µM | SK-MEL-2 7.89 µM | ACHN 11.7 µM | HT-29 5.61 µM | CCRF-CEM 1.91 µM | RXF 393 4.63 µM | M14 11.9 µM | SK-OV-3 26.9 µM | NCI-H522 6.79 µM | COLO 205 14.8 µM | OVCAR-8 7.71 µM | NCI-H226 13 µM | OVCAR-3 11.3 µM

c1ccc(-c2sc(-c3ccccc3)c3c2C(c2ccccc2)c2c(-c4ccccc4)sc(-c4ccccc4)c2C3c2ccccc2)cc1 (stereo not drawn)
inactive: EKVX > 100 µM | CAKI-1 > 100 µM | Malme-3M > 100 µM | UACC-62 > 100 µM | ACHN > 100 µM | HT-29 > 100 µM | CCRF-CEM > 100 µM | RXF 393 > 100 µM | M14 > 100 µM | SK-OV-3 > 100 µM | NCI-H522 > 100 µM | COLO 205 > 100 µM | OVCAR-8 > 100 µM | NCI-H226 > 100 µM | OVCAR-3 > 100 µM

CCCCCCCC(=O)N1C2CC3CCC2(CS1(=O)=O)C3(C)C (stereo not drawn)
inactive: EKVX 37.4 µM | CAKI-1 20.2 µM | MCF7 18.7 µM | Malme-3M 16.7 µM | UACC-62 22.8 µM | MDA-N 26.8 µM | ACHN 42.1 µM | HT-29 > 10 µM | CCRF-CEM 16.5 µM | RXF 393 13.3 µM | M14 17.5 µM | SK-OV-3 46.8 µM | NCI-H522 19.4 µM | PC-3 23.7 µM | COLO 205 21.8 µM | OVCAR-8 34.1 µM | OVCAR-3 > 10 µM

CC(=O)c1cc(CC2Cc3cc4c(cc3C2=O)CCC4)cc2c1CCC2 (stereo not drawn)
inactive: EKVX 37.8 µM | CAKI-1 90.2 µM | MCF7 30.8 µM | Malme-3M 33 µM | UACC-62 > 100 µM | SK-MEL-2 71.1 µM | ACHN 92.7 µM | HT-29 48.2 µM | CCRF-CEM 24 µM | M14 69.7 µM | SK-OV-3 62.2 µM | NCI-H522 36.9 µM | PC-3 10.1 µM | NCI/ADR-RES 26.2 µM | COLO 205 24.8 µM | OVCAR-8 46.8 µM | NCI-H226 44.9 µM | OVCAR-3 90.2 µM

c1ccc(CCCC2Sc3cccc4cccc(c34)S2)cc1
inactive: EKVX > 100 µM | CAKI-1 > 100 µM | Malme-3M 78.3 µM | UACC-62 > 100 µM | SK-MEL-2 > 100 µM | ACHN > 100 µM | HT-29 78.9 µM | CCRF-CEM > 100 µM | RXF 393 > 100 µM | M14 > 100 µM | SK-OV-3 > 100 µM | NCI-H522 92.7 µM | COLO 205 > 100 µM | OVCAR-8 > 100 µM | NCI-H226 88.3 µM | OVCAR-3 > 100 µM

Cc1cccc(C)c1N1C(=O)C(=O)C(c2nc3ccccc3s2)/C(=N/NC(=O)NN)C1=O (stereo not drawn)
inactive: EKVX > 100 µM | CAKI-1 > 100 µM | Malme-3M > 100 µM | UACC-62 > 100 µM | SK-MEL-2 > 100 µM | ACHN > 100 µM | HT-29 > 100 µM | CCRF-CEM > 100 µM | RXF 393 > 100 µM | M14 > 100 µM | SK-OV-3 > 100 µM | NCI-H522 > 100 µM | COLO 205 > 100 µM | OVCAR-8 > 100 µM | NCI-H226 > 100 µM | OVCAR-3 > 100 µM

O=c1c2cc(Br)cc(Br)c2[nH]c(=S)n1-c1ccc(/N=N/c2ccc(O)c3cccnc23)cc1
inactive: EKVX 38.6 µM | CAKI-1 54.3 µM | MCF7 12.9 µM | Malme-3M 18.7 µM | MDA-N 31.4 µM | SK-MEL-2 > 100 µM | ACHN 25.4 µM | HT-29 39.6 µM | RXF 393 55.2 µM | M14 39.7 µM | SK-OV-3 > 100 µM | NCI-H522 18.7 µM | PC-3 39.9 µM | COLO 205 32.1 µM | OVCAR-8 23.3 µM | NCI-H226 > 100 µM | OVCAR-3 14 µM

CC(C)(C)[Si](C)(C)OCC1OC(n2cnc3c(NC(=O)c4ccccc4)ncnc32)CC1O (stereo not drawn)
inactive: EKVX 40.3 µM | CAKI-1 49 µM | MCF7 44.4 µM | Malme-3M 30.5 µM | UACC-62 18.7 µM | SK-MEL-2 27.2 µM | ACHN 31.4 µM | HT-29 36.5 µM | CCRF-CEM 22.4 µM | RXF 393 22.3 µM | M14 19.9 µM | SK-OV-3 23.2 µM | NCI-H522 14.4 µM | PC-3 37.5 µM | NCI/ADR-RES 38.9 µM | COLO 205 18.3 µM | OVCAR-8 39.3 µM | NCI-H226 24.5 µM | OVCAR-3 39.9 µM

CCOC(=O)C1(c2ccccc2)CCC(=O)CC1
inactive: EKVX > 100 µM | CAKI-1 > 100 µM | Malme-3M > 100 µM | UACC-62 > 100 µM | SK-MEL-2 > 100 µM | ACHN > 100 µM | HT-29 > 100 µM | CCRF-CEM > 100 µM | RXF 393 > 100 µM | M14 > 100 µM | SK-OV-3 > 100 µM | NCI-H522 > 100 µM | COLO 205 > 100 µM | OVCAR-8 > 100 µM | NCI-H226 > 100 µM | OVCAR-3 > 100 µM

COc1c2cc([N+](=O)[O-])cc1CN(C(=O)C(F)(F)F)CCOCCN(C(=O)C(F)(F)F)C2
inactive: EKVX > 100 µM | CAKI-1 > 100 µM | MCF7 > 100 µM | Malme-3M > 100 µM | UACC-62 > 100 µM | MDA-N > 100 µM | SK-MEL-2 > 100 µM | ACHN > 100 µM | HT-29 > 100 µM | CCRF-CEM > 100 µM | M14 > 100 µM | SK-OV-3 > 100 µM | NCI-H522 > 100 µM | PC-3 > 100 µM | COLO 205 > 100 µM | OVCAR-8 > 100 µM | NCI-H226 > 100 µM | OVCAR-3 > 100 µM

CCOC(=O)C(C(=O)OCC)=C1N[C@H](C(=O)OCC)CS1
inactive: EKVX > 100 µM | CAKI-1 > 100 µM | Malme-3M > 100 µM | UACC-62 > 100 µM | SK-MEL-2 > 100 µM | ACHN > 100 µM | HT-29 > 100 µM | CCRF-CEM > 100 µM | RXF 393 > 100 µM | M14 > 100 µM | NCI-H522 > 100 µM | COLO 205 > 100 µM | OVCAR-8 > 100 µM | NCI-H226 80.5 µM | OVCAR-3 > 100 µM

COC(=O)C1=CC2OC13CC1CCC3(C2=O)C1(C)C (stereo not drawn)
inactive: EKVX > 10 µM | CAKI-1 2.2 µM | Malme-3M 8.07 µM | UACC-62 16.3 µM | SK-MEL-2 15.2 µM | ACHN 8.83 µM | HT-29 13.2 µM | CCRF-CEM 3.25 µM | RXF 393 12 µM | M14 5.28 µM | SK-OV-3 21 µM | NCI-H522 2.34 µM | COLO 205 15.5 µM | OVCAR-8 8.04 µM | NCI-H226 17.1 µM | OVCAR-3 5.89 µM

O=[N+]([O-])C1C2C=CC(C2)[C@H]1c1ccccc1Cl (stereo partly drawn)
inactive: EKVX > 100 µM | CAKI-1 > 10 µM | Malme-3M 99.1 µM | UACC-62 27.5 µM | SK-MEL-2 > 77.8 µM | ACHN > 83.6 µM | HT-29 99.8 µM | CCRF-CEM 87.5 µM | RXF 393 45.8 µM | M14 > 100 µM | SK-OV-3 > 31.6 µM | NCI-H522 23.8 µM | COLO 205 > 100 µM | OVCAR-8 > 100 µM | NCI-H226 15.8 µM | OVCAR-3 22 µM

Reference: ChEMBL document CHEMBL1201862, “PubChem BioAssay data set” (2004)
